From patent EP0495091B1 (Metabasis Therapeutics Inc., priority 1990, dated 1992) come the findings set out here.

Counter-ions that a name gives are not always drawn. Like-named read-outs stand apart in the source and are kept apart here.

For one test, the system named is Isolated rat hearts. As to the kind of experiment: Improved functional recovery in isolated hearts (Langendorff, post-ischemic LVDP). Particulars: 5 µM in perfusion buffer; 30 min ischemia, 30 min reperfusion; number in brackets = hearts. How it is done: Isolated rat hearts were cannulated via the ascending aorta and attached to a perfusion apparatus according to the method of Langendorff. The hearts were perfused at a constant pressure of 100 cm of H2O with a modified Krebs-Henseleit buffer (pH 7.4) at 37°C. As a measure of heart function, left ventricular developed pressure (LVDP) was continuously monitored. Following equilibration of the hearts for a period of 30 min., the hearts were subjected to reduced flow i.e. ischemia, by reducing the pressure to 10 cm of H2O for 30 min. Flow was then restored by returning the pressure to its original level (100 cm of H2O) for a further 30 min.

Test [1] has as its target T1, NBTI-specific adenosine transport site (Homo sapiens, UniProt Q99808).
T1 construct: incubated for 30 minutes with 0.5 mg neuronal membrane protein together with 0.5 nM [^3H]-NBTI; from tissue
T1 sequence (Q99808 1-456): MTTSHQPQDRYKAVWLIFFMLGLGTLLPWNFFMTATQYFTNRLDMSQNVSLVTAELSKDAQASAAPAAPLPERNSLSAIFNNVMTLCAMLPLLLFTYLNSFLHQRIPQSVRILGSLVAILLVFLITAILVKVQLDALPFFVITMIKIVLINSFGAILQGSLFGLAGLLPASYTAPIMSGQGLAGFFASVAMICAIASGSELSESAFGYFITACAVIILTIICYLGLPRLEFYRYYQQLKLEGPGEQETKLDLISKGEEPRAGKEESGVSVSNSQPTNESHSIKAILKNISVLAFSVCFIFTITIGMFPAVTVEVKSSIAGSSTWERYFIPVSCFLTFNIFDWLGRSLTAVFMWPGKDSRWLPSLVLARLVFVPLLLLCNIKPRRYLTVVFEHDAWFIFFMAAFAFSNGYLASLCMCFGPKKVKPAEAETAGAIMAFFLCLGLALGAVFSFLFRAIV
As to the kind of experiment: [3H]-NBTI binding assay. Particulars: 50% displacement of bound [3H]-NBTI (0.5 nM); neuronal membrane protein, 30 minutes, pH 7.4, room temperature; read-out: ED50 (the source's name). How it is done: Increasing concentrations of the test compounds were incubated for 30 minutes with 0.5 mg neuronal membrane protein together with 0.5 nM [^3H]-NBTI in a Tris buffer (pH 7.4) at room temperature. The assays were quenched and membranes collected by rapid filtration. Filters were then solubilized and radioactivity determined by scintillation counting.

Test [2] concerns coronary endothelial cells. As to the kind of experiment: Inhibition of adenosine utilization in cell culture. The format is cell-based. Particulars: for inhibition at 5 µM / inhibition at 50 µM: Endothelial cell, read-out: Inhibition of Adenosine Utilization (%). How it is done: Inhibition of adenosine utilization was determined by measuring the concentration of extracellular adenosine by scintillation counting following separation by thin layer chromatography (TLC).

The test system of test [3] is longitudinal muscle from the guinea pig ileum. As to the kind of experiment: Inhibition of stimulated contraction in isolated ileum. The settings on record: concentration which inhibited electrically stimulated contraction by 50%, read-out: IC50.
Procedure: Parallel platinum electrodes were used to deliver electrical current at 1 minute intervals at a voltage adequate to induce contraction of 90% of maximal.
Where [4] appears, read: 5 µM test compound, 1 µM [3H] adenosine, 15 minutes.
Where [5] appears, read: 50 µM test compound, 1 µM [3H] adenosine, 15 minutes.

As to `Cl.NC[C@H]1O[C@@H](n2cnc(C(=O)NC3CCCC3)c2N)[C@H](O)[C@@H]1O` [Compound No. 37, 5-Amino-1-(5-amino-5-deoxy-β-D-ribofuranosyl)imidazole-4-N-(cyclopentyl)carboxamide Hydrochloride], the “Function Recovery % Baseline LVDP (% of hearts)” value in the test with Isolated rat hearts is recorded as 71.9±3.0 (5) %.
For `Nc1c(C(=O)N2CCN(c3ccc([N+](=O)[O-])cc3)CC2)ncn1[C@@H]1O[C@H](CO)[C@@H](O)[C@H]1O` [Compound No. 60, 5-Amino-4-[1-[4-(4-nitrophenyl)]piperazinocarbamoyl]-1-β-D-ribofuranosylimidazole], the EC50 in test [1] came out at 17 µM.
The inhibition is the share of the control response that was lost under treatment. Take `Nc1c(C(=O)NCc2ccc([N+](=O)[O-])cc2)ncn1[C@@H]1O[C@H](CI)[C@@H](O)[C@H]1O` [Compound No. 46, 5-Amino-1-(5-iodo-5-deoxy-β-D-ribofuranosyl)imidazole-4-N-[(4-nitrophenyl)methyl]carboxamide]: in test [2], the inhibition at 5 µM is 19 ± 4% and the inhibition at 50 µM was determined as 30 ± 9%. In test [1], the EC50 turned out to be 8 µM.
Consider `Nc1c(C(=O)Nc2ccc([N+](=O)[O-])cc2)ncn1[C@@H]1O[C@H](CO)[C@@H](O)[C@H]1O` [Compound No. 58, 5-Amino-1-β-D-ribofuranosylimidazole-4-N-(4-nitrophenyl)carboxamide], for which the EC50 in test [1] was 80 µM.
As to `Nc1c(C(=O)Nc2ccccc2Cl)ncn1[C@@H]1O[C@H](CO)[C@@H](O)[C@H]1O` [Compound No. 64, 5-Amino-1-β-D-ribofuranosylimidazole-4-N-(2-chlorophenyl)carboxamide], the EC50 in test [1] came out at 48 µM.
Take `Nc1c(C(=O)N2CCc3ccccc32)ncn1[C@@H]1O[C@H](CO)[C@@H](O)[C@H]1O` [Compound No. 48, 5-Amino-1-β-D-ribofuranosyl-imidazole-4-N-indolinylcarboxamide]: in test [2], the inhibition at 5 µM was 23 ± 3% and the inhibition at 50 µM stood at 25 ± 2%. Further, the EC50 in test [1] is 22 µM.
Regarding `Nc1c(C(=O)Nc2ccc(Br)cc2)ncn1[C@@H]1O[C@H](CO)[C@@H](O)[C@H]1O` [Compound No. 55, 5-Amino-1-β-D-ribofuranosylimidazole-4-N-(4-bromophenyl)carboxamide], in test [1], the EC50 was found to be 60 µM.
By IC50 is commonly meant the midpoint of a concentration-inhibition curve. In the case of `Nc1c(C(=O)NC[C@H](O)c2ccc(O)c(O)c2)ncn1[C@@H]1O[C@H](CO)[C@@H](O)[C@H]1O` [compound 42, (R)-5-Amino-1-β-D-ribofurano-sylimidazole-4-N-[2-hydroxy-2-(3,4-dihydroxyphenyl)ethyl]carboxamide], the IC50 in test [3] came to 6 µM.
`NC(=O)c1ncn([C@@H]2O[C@H](CNCc3ccc(Cl)cc3)[C@@H](O)[C@H]2O)c1N` [Compound No. 76, 5-Amino-1-(5-(4-chlorobenzyl-amino)-5-deoxyβ-D-ribofuranosyl)imidazole-4-carboxamide]: the “Function Recovery % Baseline LVDP (% of hearts)” value in the test with Isolated rat hearts is on record as 74.0±2.5 (6) %.
Still for that read-out and setting: with `Nc1c(C(=O)NCc2ccc(C(F)(F)F)cc2)ncn1[C@@H]1O[C@H](CO)[C@@H](O)[C@H]1O` [Compound No. 74] the figure was 73.3±3.3 (6) %.
On to `CN(C)c1ccc(CNC(=O)c2ncn([C@@H]3O[C@H](CO)[C@@H](O)[C@H]3O)c2N)cc1` [Compound No. 41, 5-Amino-1-β-D-ribofuranosylimidazole-4-N(4-dimethylaminobenzyl)-carboxamide hydrochloride], for which, in test [3], the IC50 is 100 µM.
For the molecule `Nc1c(C(=O)NCCCc2ccc([N+](=O)[O-])cc2)ncn1[C@@H]1O[C@H](CO)[C@@H](O)[C@H]1O` [Compound No. 73], the “Inhibition of Adenosine Utilization (%)” value in test [2] (setting [4]) is 16 ± 0%; in test [2] (setting [5]), 33 ± 9%.
For the molecule `CCN(CC)C[C@H]1O[C@@H](n2cnc(C(N)=O)c2N)[C@H](O)[C@@H]1O` [compound 65, 5-Amino-1-(5-deoxy-5-diethylaminoribo-β,D-furanosyl)imidazole-4-carboxamide], the “Function Recovery % Baseline LVDP (% of hearts)” value with Isolated rat hearts was 72.3±5.6 (4) %.
Take `CSC[C@H]1O[C@@H](n2cnc(C(N)=O)c2N)[C@H](O)[C@@H]1O` [Compound No. 54, 5-Amino-1-(5-deoxy-5-methylthio-β-D-ribofuranosyl)imidazole-4-carboxamide]: the EC50 in test [1] came to 28 µM.
On to `Nc1c(C(=O)NCCCCCCNC(=O)c2ncn([C@@H]3O[C@H](CO)[C@@H](O)[C@H]3O)c2N)ncn1[C@@H]1O[C@H](CO)[C@@H](O)[C@H]1O` [Compound No. 68, N,N'-bis-(5-amino-1-β-D-ribofuranosylimidazole-4-carbonyl)-1,6-diaminohexane], for which the “Function Recovery % Baseline LVDP (% of hearts)” value in the test with Isolated rat hearts is listed as 75.3±2.2 (4) %.
As for `C[C@H](NC(=O)c1ncn([C@@H]2O[C@H](CO)[C@@H](O)[C@H]2O)c1N)c1ccc([N+](=O)[O-])cc1` [Compound No. 50, (S)-5-Amino-1-β-D-ribofuranosylimidazole-4-N-[1-(4-nitrophenyl)ethyl]carboxamide], in test [1], the EC50 stood at 28 µM.
Consider `[N-]=[N+]=NC[C@H]1O[C@@H](n2cnc(C(=O)NCc3ccc(Cl)cc3)c2N)[C@H](O)[C@@H]1O` [Compound No. 52, 5-Amino-1-(5-azido-5-deoxy-β-D-ribofuranosyl)imidazole-4-N-[(4-chlorophenyl)methyl]-carboxamide], for which, in the test on Isolated rat hearts, the “Function Recovery % Baseline LVDP (% of hearts)” value was 86.0±2.5 (5) %. The inhibition at 5 µM in test [2] (setting [4]) stood at 56 ± 2%. The inhibition at 50 µM in test [2] (setting [5]) turned out to be 71 ± 1%.
Take `Nc1c(C(=O)NCc2ccc(S(N)(=O)=O)cc2)ncn1[C@@H]1O[C@H](CO)[C@@H](O)[C@H]1O` [Compound No. 75, 5-Amino-1-β-D-ribofuranosylimidazole-4-N-[(4-sulfamoylphenyl)methyl]carboxamide]: in test [2] (setting [5]), the “Inhibition of Adenosine Utilization (%)” value is 30 ± 3%.
In the case of `Nc1c(C(=O)NCc2cccc(I)c2)ncn1[C@@H]1O[C@H](CO)[C@@H](O)[C@H]1O` [Compound No. 44, 5-Amino-1-β-D-ribofuranosyl-imidazole-4-N-[(3-iodophenyl)methyl]carboxamide], in test [3] (Cavia porcellus), the IC50 came to 20 µM.
`C[C@@H](NC(=O)c1ncn([C@@H]2O[C@H](CO)[C@@H](O)[C@H]2O)c1N)c1ccc([N+](=O)[O-])cc1` [Compound No. 49]: in test [2], the inhibition at 5 µM amounted to 30 ± 4% and the inhibition at 50 µM is 33 ± 8%. Further, in test [1], the EC50 was found to be 7 µM.
With `CNC[C@H]1O[C@@H](n2cnc(C(N)=O)c2N)[C@H](O)[C@@H]1O` [Compound No. 63, 5-Amino-1-β-D-(5-deoxy-5-methylaminoribofuranosyl)imidazole-4-carboxamide], the “Function Recovery % Baseline LVDP (% of hearts)” value with Isolated rat hearts is 79.7±4.8 (4) %.
Same read-out and setting: with `Nc1c(C(=O)NC2CCC(NC(=O)c3ncn([C@@H]4O[C@H](CO)[C@@H](O)[C@H]4O)c3N)CC2)ncn1[C@@H]1O[C@H](CO)[C@@H](O)[C@H]1O` (stereo partly drawn) [Compound No. 69, N,N'-Bis-(5-Amino-1-β-D-ribofuranosylimidazole-4-carbonyl)-1,4-diaminocyclohexane] the figure was 77.0±2.8 (6) %; with `NC(=O)c1ncn([C@@H]2O[C@H](CNCc3ccccc3)[C@@H](O)[C@H]2O)c1N` [Compound No. 66, 5-Amino-1-β-D-(5-benzylamino-5-deoxyribofuranosyl)imidazole-4-carboxamide], 88.5±1.8 (5) %.
Regarding `C[C@H]1O[C@@H](n2c(S)nc(C(N)=O)c2N)[C@H](O)[C@@H]1O` [Compound No. 67, 5-Amino-2-thio-1-β-D-(5-deoxyribofuranosyl)imidazole-4-carboxamide], in the test on Isolated rat hearts, the “Function Recovery % Baseline LVDP (% of hearts)” value is 77.4±5.7 (3) %.
In the case of `Nc1c(C(=O)Nc2ccc(I)cc2)ncn1[C@@H]1O[C@H](CO)[C@@H](O)[C@H]1O` [Compound No. 57, 5-Amino-1-β-D-ribofuranosyl-imidazole-4-N-(4-iodophenyl)carboxamide], the EC50 in test [1] stood at 80 µM.
For the molecule `Nc1c(C(=O)NCc2cccc(Cl)c2)ncn1[C@@H]1O[C@H](CO)[C@@H](O)[C@H]1O` [Compound No. 35, 5-amino-1-β-D-ribofuranosyl-imidazole-4-N[(3-chlorophenyl)methyl]carboxamide], the IC50 in test [3] (Cavia porcellus) was found to be 60 µM.
